Results reported in the supplement of paper PMC10307832.

Experiments:
Test in all cases: relative viability (nuclei count vs DMSO), 5 days (fraction); higher = more cells survive
[1] = compound: O=C(O)c1ccc2c(c1)nc(Nc1cccc(Cl)c1)c1ccncc12 [Silmitasertib] + CC1(C)CCC(c2ccc(Cl)cc2)=C(CN2CCN(c3ccc(C(=O)NS(=O)(=O)c4ccc(N[C@H](CCN5CCOCC5)CSc5ccccc5)c(S(=O)(=O)C(F)(F)F)c4)cc3)CC2)C1 [Navitoclax] (partner 0.5 µM)
Summary of the method: (§1)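 Lung cancer cell lines were pin-tool dosed in 1536-well plates on the day after seeding, with either a lone drug or a fixed anchor-drug dose plus five library-drug doses (not always all listed) in √10 steps. Nuclei were counted on 4× images after 5 days. Relative viability is the ratio of treated-well to vehicle-well nuclei counts, with each value a median of duplicate plates.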

[2] = compound: O=C(O)c1ccc2c(c1)nc(Nc1cccc(Cl)c1)c1ccncc12 [Silmitasertib] + COc1cc2c(Oc3ccc(NC(=O)C4(C(=O)Nc5ccc(F)cc5)CC4)cc3F)ccnc2cc1OCCCN1CCOCC1 [Foretinib] (partner 0.25 µM)
Summary of the method: as §1

Silmitasertib + OSI-027 = compound: O=C(O)c1ccc2c(c1)nc(Nc1cccc(Cl)c1)c1ccncc12 [Silmitasertib] + COc1cccc2cc(-c3nc([C@H]4CC[C@H](C(=O)O)CC4)n4ncnc(N)c34)[nH]c12 [OSI-027] (partner 0.5 µM)
Summary of the method: as §1

[3] = compound: O=C(O)c1ccc2c(c1)nc(Nc1cccc(Cl)c1)c1ccncc12 [Silmitasertib] + Cc1cc(Nc2cc(N3CCN(C)CC3)nc(Sc3ccc(NC(=O)C4CC4)cc3)n2)n[nH]1 [Tozasertib] (partner 0.1 µM)
Summary of the method: as §1

[4] = compound: O=C(O)c1ccc2c(c1)nc(Nc1cccc(Cl)c1)c1ccncc12 [Silmitasertib] + Nc1nc2[nH]cc(CCc3ccc(C(=O)N[C@@H](CCC(=O)O)C(=O)O)cc3)c2c(=O)[nH]1 [Pemetrexed] (partner 0.2 µM)
Summary of the method: as §1

Cell Line	relative viability ([1]; first compound 0.04 µM)	relative viability ([1]; first compound 1.265 µM)	relative viability ([1]; first compound 4 µM)	relative viability ([2]; first compound 0.04 µM)	relative viability ([2]; first compound 1.265 µM)	relative viability ([2]; first compound 4 µM)	relative viability (Silmitasertib + OSI-027; first compound 0.04 µM)	relative viability (Silmitasertib + OSI-027; first compound 1.265 µM)	relative viability (Silmitasertib + OSI-027; first compound 4 µM)	relative viability ([3]; first compound 0.04 µM)	relative viability ([3]; first compound 1.265 µM)	relative viability ([3]; first compound 4 µM)	relative viability ([4]; first compound 0.04 µM)	relative viability ([4]; first compound 1.265 µM)	relative viability ([4]; first compound 4 µM)	relative viability ([1]; first compound 0.4 µM)	relative viability ([2]; first compound 0.4 µM)	relative viability (Silmitasertib + OSI-027; first compound 0.4 µM)	relative viability ([3]; first compound 0.4 µM)	relative viability ([4]; first compound 0.4 µM)
NCI-H441	0.463	0.509	0.385	0.871	0.67	0.277	0.629	0.337	0.26	0.61	0.512	0.472	0.289	0.245	0.281					
NCI-H460	1.26	1.3	1.04	1.04	1.07	1.15	0.822	0.64	0.672	0.556	0.405	0.523	0.0675	0.0651	0.0575	1.2	0.961	0.688	0.119	0.0541
NCI-H520	1.11	1.04	0.863	0.742	0.934	0.711	0.197	0.252	0.252	0.443	0.42	0.394	0.716	0.694	0.566	0.917	1	0.239	0.429	0.716
NCI-H596	1.09	0.902	0.787	0.817	0.787	0.871	0.749	0.68	0.472	0.967	0.624	0.799	0.523	0.54	0.472	0.882	0.74	0.471	0.735	0.502
NCI-H647	1.05	0.85	0.57	1.21	0.874	1.06	0.775	0.503	0.44	0.324	0.196	0.175	0.183	0.148	0.134	0.826	1.04	0.578	0.211	0.16
NCI-H838	1.36	1.29	0.929	1.16	0.996	0.589	0.456	0.425	0.274	0.289	0.257	0.222	0.231	0.227	0.213					0.234
NCI-H1355	1.04	0.965	0.771	0.944	0.822	0.916	0.438	0.371	0.345	0.545	0.528	0.46	1.04	1.01	0.852					
NCI-H1395	1.2	1.1	0.947	0.894	0.97	0.972	0.731	0.591	0.477	0.742	0.68	0.623	0.975	0.841	0.654	0.816	0.805	0.552	0.559	0.756
NCI-H1437	1.11	0.906	0.828	1.28	1.24	0.942	0.946	0.598	0.457	0.397	0.3	0.241	0.337	0.254	0.228		1.16	0.623	0.406	0.3
NCI-H1650	1.38	0.695	0.414	1.47	0.902	0.653	0.99	0.496	0.203	0.466	0.272	0.235	0.339	0.387	0.319	1.24	1.34	0.511	0.517	0.454
NCI-H1651	1.01	1.09	1.02	0.951	0.812	0.732	0.822	0.642	0.704	0.785	0.541	0.443	0.625	0.247	0.665	1.06	0.892	0.667	0.556	0.38
NCI-H1666	1.02	0.663	0.492	0.954	0.693	0.6	0.812	0.652	0.615	0.734	0.543	0.446	0.89	0.72	0.63	0.853	0.964	0.732	0.626	0.795
NCI-H1734	0.884	0.781	0.737	0.877	0.781	0.753	0.626	0.593	0.497	0.275	0.274	0.243	0.443	0.423	0.386		0.8	0.522	0.261	0.336
NCI-H1755	1.04	0.991	0.959	0.945	0.901	1.07	0.726	0.728	0.721	0.572	0.623	0.714	0.422	0.383	0.386	0.942	0.911	0.764	0.519	0.489
NCI-H1793	0.46	0.395	0.311	0.757	0.427	0.607	0.329	0.27	0.217	0.392	0.2	0.331	1.08	0.719	0.425	0.315	0.62	0.192	0.297	0.851
NCI-H1915	0.839	0.888	0.64	1.13	1.05	0.991	0.624	0.676	0.351	0.487	0.38	0.283	0.503	0.429	0.302					
NCI-H1944	0.976	1.06	1.27	0.924	0.92	1	0.409	0.424	0.295	0.259	0.237	0.308	0.551	0.615	0.77	0.732	0.768	0.382	0.266	0.447

Cell Line	relative viability ([1]; first compound 0.04 µM)	relative viability ([1]; first compound 1.265 µM)	relative viability ([1]; first compound 4 µM)	relative viability ([2]; first compound 0.04 µM)	relative viability ([2]; first compound 1.265 µM)	relative viability ([2]; first compound 4 µM)	relative viability (Silmitasertib + OSI-027; first compound 0.04 µM)	relative viability (Silmitasertib + OSI-027; first compound 1.265 µM)	relative viability (Silmitasertib + OSI-027; first compound 4 µM)	relative viability ([3]; first compound 0.04 µM)	relative viability ([3]; first compound 1.265 µM)	relative viability ([3]; first compound 4 µM)	relative viability ([4]; first compound 0.04 µM)	relative viability ([4]; first compound 1.265 µM)	relative viability ([4]; first compound 4 µM)	relative viability ([1]; first compound 0.4 µM)	relative viability ([2]; first compound 0.4 µM)	relative viability (Silmitasertib + OSI-027; first compound 0.4 µM)	relative viability ([3]; first compound 0.4 µM)	relative viability ([4]; first compound 0.4 µM)
NCI-H1975	1.04	1.06	0.716	0.883	0.802	0.83	0.67	0.645	0.66	0.942	0.514	0.308	0.294	0.287	0.219	0.699				
NCI-H1993	1.07	0.631	0.749	0.817	0.651	0.65	0.544	0.614	0.658	0.622	0.522	0.53	0.616	0.598	0.505	0.933	0.652	0.56	0.523	0.524
NCI-H2009	1.15	1.19	0.788	1.34	1.13	0.897	0.784	0.424	0.262	0.817	0.719	0.474	1.09	1.13	0.908	1.09	1.16	0.506	0.839	0.98
NCI-H2023	0.999	0.96	0.73	0.886	0.551	0.707	0.503	0.343	0.251	0.46	0.24	0.252	0.278	0.266	0.21	1.01	0.75	0.345	0.321	0.187
NCI-H2085	1.15	0.933	0.874	0.918	0.952	0.861	0.914	0.704	0.466	0.82	0.602	0.533	1.02	0.833	0.867	0.942			0.737	0.647
NCI-H2087	1.11	0.689	0.319	1.22	0.741	0.806	0.507	0.513	0.18	0.264	0.152	0.132	0.604	0.665	0.542	0.855				0.64
NCI-H2126	0.897	0.81	0.745	1.21	1.03	1.07	0.725	0.596	0.602	0.845	0.793	0.709	0.734	0.672	0.491	0.847			0.759	0.623
NCI-H2170	0.614	0.446	0.433	1.01	0.916	1.01	0.798	0.619	0.54	0.673	0.713	0.65	0.271	0.25	0.282	0.339	0.881	0.535	0.478	0.258
NCI-H2228	0.981	0.586	1.16	1	0.926	1.1	0.541	0.583	0.494	0.287	0.247	0.23	0.331	0.333	0.307	0.579				0.337
NCI-H2347	0.891	0.745	0.665	0.612	0.885	0.561	0.414	0.398	0.336	0.663	0.56	0.419	0.44	0.363	0.42	0.692	0.762			
NCI-H2405	1.26	0.596	0.706	1.02	0.967	0.964	0.646	0.498	0.567	0.772	0.652	0.665	1.12	0.73	0.86	0.68	0.887	0.518	0.526	1
NCI-H3122	1.01	1.01	1.08	0.821	0.982	0.947	0.993	0.972	0.826	0.427	0.334	0.305	0.203	0.185	0.194	0.996	0.86	0.888	0.41	0.189
PC-3 [JPC-3]	0.746	0.773	0.775	1.12	1.14	0.998	0.841	0.777	0.573	0.971	0.86	0.835	1.18	1.15	0.6	0.688	0.852	0.573	0.69	0.919
PC-14	1.12	1.07	1.11	1.05	0.965	0.461	1.03	0.706	0.46	0.668	0.595	0.532	0.134	0.122	0.113	1.09	1.02	0.537		
RERF-LC-KJ	0.863	0.782	0.436	0.887	0.765	0.628	0.627	0.41	0.373	0.546	0.382	0.248	0.488	0.439	0.342	0.85	0.753	0.484	0.531	0.445
SK-LU-1	0.984	0.671	0.217	0.954	0.621	0.417	0.432	0.223	0.197	0.358	0.221	0.195	0.984	0.771	0.351	0.532	0.693	0.248	0.315	0.885
